PMC10708475, “HPLC-DAD-MS Characterization, Antioxidant Activity, α-amylase Inhibition, Molecular Docking, and ADMET of Flavonoids from Fenugreek Seeds” (Molecules, 2023)

What was measured:
[1] = Ferric-reducing antioxidant power (FRAP) assay; conditions: concentration indicating 0.50 absorbance, 700 nm; maximum tested 200 µg/mL
Experimental: The ferric-reducing antioxidant power (FRAP) assay was carried out according to [119]. The reaction mixture contained 10 μL of the extracts, 40 µL phosphate buffer (pH 6.6), and 50 μL potassium ferricyanide K3[Fe (CN)6] (1%), was incubated at 50 °C for 20 min, then 50 µL of trichloroacetic acid (TCA) (10%) and 40 µL of distilled water and 10 µL of ferric chloride FeCl3 (0.1%) were added. Then, the absorbance was measured at 700 nm using a microplate reader of type PerkinElmer (Enspire) against a blank. Tannic acid, α-tocopherol, and ascorbic acid were used as references.
The results of the tests carried out are expressed as an average ± SD of analyses in three tests. […] The one-way analysis of variance ANOVA was used to detect significant differences (p < 0.05).

[2] = DPPH radical scavenging assay; conditions: 30 min, 517 nm
Experimental: The ability of radical scavenging was determined according to [118], using the radical DPPH• (2,2-diphenyl-1-picrylhydrazyl). 160 µL of DPPH solution (0.15 mM) was added to 40 µL of the diluted extracts in methanol and incubated in the dark. After 30 min of incubation, the absorbances were measured at 517 nm by a microplate reader of type PerkinElmer (Enspire) against a blank. BHA, BHT, and α-tocopherol were used as reference antioxidants. DPPH inhibition percentage was calculated using the following equation:(3) Inhibition(%)=A0−As/A0×100 where A0 is the absorbance of the control (without the sample) and As is the absorbance of the tested samples. The antioxidant activity of the extracts and standards was expressed as IC50 (the concentration of the tested samples that inhibits 50% of DPPH radicals).
(§1) The results of the tests carried out are expressed as an average ± SD of analyses in three tests. The values of IC50 (50% inhibition concentration) and A0.5 (the concentration indicating 0.50 absorbance) are calculated using the linear regression method from the two curves: [% inhibition = f (concentration)] for IC50 and [Absorbance = f (concentration)] for A0.5. All the antioxidant and enzymatic tests were carried out at more than four concentration values. The one-way analysis of variance ANOVA was used to detect significant differences (p < 0.05).

[3] = ABTS+ scavenging activity; conditions: 10 min, 734 nm
Experimental: The ABTS•+ assay (2, 2′-azino-bis (3-ethylbenzthiazoline-6-sulfonic acid)) was carried out according to the method with some modifications. The ABTS+ reagent was prepared as follows: 19.2 mg of ABTS (7 mM) in 5 mL distilled water was mixed with 3.3 mg of Potassium persulfate K2S2O8 (2.45 mM) in 5 mL distilled water, and the mixture was incubated for 16 h in the dark before use. We have added 160 µL of ABTS+ reagent to 40 μL of extract solutions. After 10 min of incubation, the absorbance was read at 734 nm using a microplate reader of type PerkinElmer (Enspire). BHA and BHT were used as references. The total antioxidant activity of the extracts was calculated as follows:(4) ABTS^+scavenging effect (%)=AControl−ASample/AControl×100
as §1

Compound | FRAP A0.5 [1] | DPPH Inhibition IC50 [2] | ABTS Inhibition IC50 [3]
O=C1O[C@H]([C@@H](O)CO)C(O)=C1O [Ascorbic acid] | 6.77 ± 1.15 µg/mL |  | 
COc1ccc(O)c(C(C)(C)C)c1 [BHA, Butylated hydroxyanisole] |  | 6.14 ± 0.41 µg/mL | 1.81 ± 0.10 µg/mL
Cc1cc(C(C)(C)C)c(O)c(C(C)(C)C)c1 [BHT, hydroxytoluene] |  | 12.99 ± 0.41 µg/mL | 1.29 ± 0.30 µg/mL
Tannic acid | 5.39 ± 0.91 µg/mL |  | 
